Results on four molecules are retold here after patent US4985445A, “Cancer cell metastasis inhibitors and novel compounds” (Meiji Seika Kaisha, Ltd., priority 1988, dated 1991).

For series [1], the system named is B16 subline of high pulmonary metastatic potential. To be noted: 3 days. The procedure:
(§1) The B16 subline of high pulmonary metastatic potential and murine tumor cell line L 929 were cultured in DME medium supplemented with 10% bovine fetal serum at 37° C. in the presence of 5% CO2. Then, cells were detached from the Petri dish with trypsin-EDTA solution. The B16 subline and L 929 were suspended in the medium described above in 1×10^4 cells/ml and 1×10^3 cells/ml, respectively. Each suspension, 150 μl, was added to 50 μl of N-(3-phenylpropyl)-1-deoxynojirimycin solution or Adriamycin (control) solution. Incubation was performed for 3 days for the B16 subline and for 4 days for L 929 strain.
as §1, with “of N-(4-phenoxy-trans-2-butenyl)-1-deoxynojirimycin” for “of N-(3-phenylpropyl)-1-deoxynojirimycin”, “days in” for “days for”, “L 929.” for “L 929 strain.”
The B16 subline of high pulmonary metastatic potential and murine tumor cell line L 929 were cultured in DME medium supplemented with 10% bovine fetal serum at 37° C. in the presence of 5% CO2. Then, cells were detached from the Petri dish with trypsin-EDTA solution. The B16 subline and L 929 were suspended in the medium described above in 1×10^4 cells/ml and 1×10^3 cells/ml, respectively. Each suspension, 150 μl, was added to 50 μl of D-glucaro-δ-lactam calcium salt solution or Adriamycin (control) solutions. Incubation was performed for 3 days in the B16 subline and for 4 days in L 929.
The B16 subline of high pulmonary metastatic potential and murine tumor cell line L 929 were cultured in DME medium supplemented with 10% bovine fetal serum at 37° C. in the presence of 5% CO2. Then, cells were detached from the Petri dish with trypsin-EDTA solution. The B16 subline and L 929 were suspended in the medium described above in 1×10^4 cells/ml and 1×10^3 cells/ml, respectively. Each suspension, 150 μl, was added to 50 μl of 2,6-di-O-(1-(p-chlorobenzoyl)-5-methoxy-2-methylindole-3-acetyl)-D-gluco-δ-lactam solution or and Adriamycin (control) solutions. Incubation was performed for 3 days in the B16 subline and for 4 days in L 929.
The B16 subline of high pulmanary metastatic potential and murine tumor cell line L 929 were cultured in DME medium supplemented with 10% bovine fetal serum at 37° C. in the presence of 5% CO2. Then, cells were detached from the Petri dish with trypsin-EDTA solution. The B16 subline and L 929 were suspended in the medium described above in 1×10^4 cells/ml and 1×10^3 cells/ml, respectively. Each suspension, 150 μl, was added to 50 μl of 6-O-triphenylmethyl-D-gluco-δ-lactam solution or Adriamycin (control) solutions. Incubation was performed for 3 days in the B16 sibline and for 4 days in L 929.
The B16 subline of high pulmonary metastatic potential was inoculated into DME medium supplemented with 10% bovine fetal serum and 30 μg/ml of 1-deoxynojirimycin was added thereto followed by incubation at 37° C. for 3 days in the presence of 5% CO2. […] Next, the cells were detached from the Petri dish with trypsin-EDTA solution. The cells were suspended in PBS- in 1×10^6 cells/ml as viable cells. This suspension, 0.1 ml, was intravenously injected in the tail vein of the mouse BDF1 (8 week age, male; 1 group, 3 mice). After feeding for 14 days, the mouse was sacrificed to excise the lungs. The number of colonies of the B16 subline on the surface of and in the lungs was counted.

Series [2] deals with murine tumor cell line L 929. Put plainly: Cytotoxic activity against L 929 (growth observed with inverted microscope, 4 days).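 For growth: + means growth and ± means marked inhibition and - means cell death.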 The class given is cell-based. Conditions: for Cytotoxicity (in words): L 929, even at a concentration as high as 30 μg/ml; for Growth: 4 days. The procedure: The B16 subline of high pulmonary metastatic potential and murine tumor cell line L 929 were cultured in DME medium supplemented with 10% bovine fetal serum at 37° C. in the presence of 5% CO2.
The B16 subline of high pulmanary metastatic potential and murine tumor cell line L 929 were cultured in DME medium supplemented with 10% bovine fetal serum at 37° C. in the presence of 5% CO2.

A short description of series [3]: Acute toxicity (LD50) by mice. Conditions: mouse, in vivo.
Series [4] deals with B16 subline of high pulmonary metastatic potential. The series is described as follows: Inhibition of pulmonary metastasis of B16 subline pretreated with compound and injected i.v. into BDF1 mice. The class given is in vivo, murine; mouse BDF1. Conditions: for Inhibition of metastasis to the lungs (in words): B16 subline, BDF1 mice; for Pulmonary Metastasis (Mean ± Standard Deviation): 3 mice. The procedure:
Based on the method described priviously (Method in Cancer Research, 15, 399-439, 1978), a subline of high metastatic potential (high pulmonary colonization) was selected from murine melanoma B16 by repeating the i.v. transplantation of the tumor cells in BDF1 mice and the isolation of pulmonary metastatic clones.
Evaluation of the metastasis inhibiting activity was performed based on the method described previously (Proc. Natl Acad. Sci. USA, 83, 1752-1756, 1986, Cancer Research, 46, 858-862, 1986).
Firstly, the B16 subline of high metastatic potential was inoculated into Dulbecco's ME medium (DME medium) supplemented with 10% bovine fetal serum and the compound represented by general formula (I) described above was added thereto.
The B16 subline of high pulmonary metastatic potential was inoculated into DME medium supplemented with 10% bovine fetal serum and 30, 100 or 300 μg/ml of N (3-phenylpropyl)-1-deoxynojirimycin was added thereto followed by incubation at 37° C. for 3 days in the presence of 5% CO2.
Inhibition of metastasis was examined in a manner similar to Test Example 2 except that N-(3-phenyl-2-propenyl)-1-deoxy-nojirimycin and N-(3-p-chlorophenyl-3-methyl-2-propenyl)-1-deoxynojirimycin were used instead of N-(3-phenylpropyl)-1-deoxynojirimycin in Test Example 2. In this test example, however, 2.5×10^5 cells each of the B16 subline were transplanted to 3 mice for each group.
The B16 subline of high pulmonary metastatic potential was inoculated into DME medium supplemented with 10% bovine fetal serum and 30 μg/ml of N-(4-phenoxy-trans-2-butenyl)-1-deoxynojirimycin was added thereto followed by incubation at 37° C. for 3 days in the presence of 5% CO2. […] The number of colonies of the B16 subline formed on the surface of and in the lung was counted.
Inhibition of metastasis was examined in a manner similar to Test Example 5 except that N-(2-phenoxyethyl)-1-deoxynojirimycin was used instead of N-(4-phenoxy-trans-2-butenyl)-1-deoxynojirimycin in Test Example 5.
The B16 sibline of high pulmonary metastatic potential was inoculated into DME medium supplemented with 10% bovine fetal serum and 10 μg/ml of D-glucaro-δ-lactam calcium salt was added thereto followed by incubation at 37° C. for 3 days in the presence of 5% CO2. […] The number of the colonies formed on the surface of and in the lung was counted.
Inhibition of metastasis was examined in a manner similar to Test Example 8 except that D-glucaro-δ-lactam methyl ester and D-glucaro-δ-lactam ethyl ester were used instead of D-glucaro-δ-lactam calcium salt in Test Example 8.
The B16 subline of high pulmonary metastatic potential was inoculated into DME medium supplemented with 10% bovine fetal serum and 10 μg/ml of 2,6-di-O-(acetylsalicyloyl)-D-gluco-δ-lactam was added thereto followed by incubation at 37° C. for 3 days in the presence of 5% CO2.
The B16 subline of high pulmonary metastatic potential was inoculated into DME medium supplemented with 10% bovine fetal serum and 30 μg/ml of 6-O-triphenylmethyl-D-gluco-δ-lactam was added thereto followed by incubation at 37° C. for 3 days in the presence of 5% CO2.
The B16 subline of high pulmonary metastatic potential was inoculated into DME medium supplemented with 10% bovine fetal serum and 30 μg/ml of 1-deoxynojirimycin was added thereto followed by incubation at 37° C. for 3 days in the presence of 5% CO2.

Like-named read-outs stand apart in the source and are kept apart here. Where only a bound is given, the exact number is not on record here.

As for `O=C1N[C@H](COC(c2ccccc2)(c2ccccc2)c2ccccc2)[C@@H](O)[C@H](O)[C@H]1O` [6-O-Triphenylmethyl-D-gluco-δ-lactam, 6-O-triphenylmethyl-D-gluco-δ-lactam], the Growth entry in series [1] (Table 13, B16 subline, 3 μg/ml) was “+”; in series [1] (Table 13, B16 subline, 10 μg/ml) it was “+”; in series [1] (Table 13, B16 subline, 30 μg/ml), “+”; in series [2] (Table 13, L 929, 10 μg/ml), “+”; in series [2] (Table 13, L 929, 30 μg/ml), “+”. In series [2], the “Cytotoxicity (in words)” value is recorded as “did not show marked cytotoxicity”. In series [3] (sc), this molecule showed an LD50 of more than 300 mg/kg. In addition, the “Inhibition of metastasis to the lungs (in words)” value (“Inhibition of metastasis” below) in series [4] is given as “markedly inhibited”. Moreover, in series [4] (Table 14, 30 μg/ml, None 92 ± 21.3), the “Pulmonary Metastasis (Mean ± Standard Deviation)” value came out at 17 ± 8.5 no.

Take `OC[C@@H]1[C@@H](O)[C@H](O)[C@@H](O)CN1CC=Cc1ccccc1` [N-(3-phenyl-2-propenyl)-1-deoxynojirimycin]: in series [3] (ip), the LD50 was more than 500 mg/kg. Besides, the “Inhibition of metastasis” value in series [4] is “markedly inhibited”. In addition, in series [4] (Table 4, 30 μg/ml, 2.5×10^5 cells, None 109 ± 32.0), the “Pulmonary Metastasis (Mean ± Standard Deviation)” value is reported as 16.8 ± 12.6 no.

On to `OC[C@@H]1[C@@H](O)[C@H](O)[C@@H](O)CN1C/C=C/COc1ccccc1` [N-(4-phenoxy-trans-2-butenyl)-1-deoxynojirimycin], for which the Growth entry in series [1] (Table 5, B16 subline, 3 μg/ml) is “+”; in series [1] (Table 5, B16 subline, 10 μg/ml), “+”; in series [1] (Table 5, B16 subline, 30 μg/ml) it was “+”; in series [2] (Table 5, L 929, 3 μg/ml), “+”; in series [2] (Table 5, L 929, 30 μg/ml), “+”; in series [2] (Table 5, L 929, 100 μg/ml) it was “+”. In series [2], the “Cytotoxicity (in words)” value is “did not show the marked cytotoxicity”. The same molecule came in with an LD50 in series [3] (ip) of more than 500 mg/kg. Also, the “Inhibition of metastasis” value in series [4] is “the number of colonies on the surface of and in the lungs was decreased”. Moreover, the “Pulmonary Metastasis, Mouse 1” value in series [4] (Table 6, 10 μg/ml, 14 days) amounted to 14 no. In addition, in series [4] (Table 6, 10 μg/ml, 14 days), the “Pulmonary Metastasis, Mouse 2” value was 48 no. The “Pulmonary Metastasis, Mouse 3” value in series [4] (Table 6, 10 μg/ml, 14 days) amounted to 52 no. Further, in series [4] (Table 6, 10 μg/ml, 14 days, None 135 ± 13.4), the “Pulmonary Metastasis, Mean ± Standard Derivation” value is 38 ± 20.9 no. Further, the “Pulmonary Metastasis, %” value in series [4] (Table 6, 10 μg/ml, None = 100) worked out at 28.1%.

In series [3] (ip), `CC(=O)Oc1ccccc1C(=O)OC[C@H]1NC(=O)[C@H](OC(=O)c2ccccc2OC(C)=O)[C@@H](O)[C@@H]1O` [2,6-di-O-(acetylsalicyloyl)-D-gluco-δ-lactam] returned an LD50 of more than 500 mg/kg. The “Inhibition of metastasis” value in series [4] was “markedly inhibited”. Also, in series [4] (Table 12, 10 μg/ml, None 53 ± 22.4), the “Pulmonary Metastasis (Mean ± Standard Deviation)” value is given as 11.2 ± 3.5 no.

For orientation: LD50 means the dose expected to kill half of the subjects tested.
